Like-named read-outs stand apart in the source and are kept apart here.
How the values were obtained:
serum hs-CRP = assay: Serum hs-CRP levels in human ACS subjects; format: in vivo
Experimental: (§1) 625 adult (18 years of age or older) unstable human subjects who had recently experienced an index ACS event (UA, NSTEMI, or STEMI) were randomized to receive placebo or A-002 at 500 mg once daily via oral administration in a double-blinded manner. A-002 was delivered in the form of two 250 mg tablets. In addition, all subjects received atorvastatin at 80 mg once daily via oral administration of a single tablet.
(§2) Subjects were randomized within 96 hours of hospital admission for an index ACS event, or within 96 hours of index ACS event diagnosis if already hospitalized. Prior to randomization, subjects were screened for pertinent medical history, and baseline levels of LDL and hs-CRP were measured. Baseline sPLA2 levels were also measured in a random subset of subjects. Percutaneous revascularization, if required or planned for a particular subject, was performed prior to randomization.
(§3) Subjects were excluded if they were receiving statin therapy at maximum recommended or tolerated dosage (i.e., 40-80 mg QD for atorvastatin, fluvastatin, lovastatin, pravastatin, or simvastatin, or 20-40 mg QD rosuvastatin) at the time of the index ACS event. During the trial, subjects were prevented from using any lipid-lowering therapy other than 80 mg atorvastatin and/or A-002.
(§4) For purposes of this study, MACEs included all-cause mortality, non-fatal MI, documented UA requiring urgent hospitalization, revascularization occurring 60 days or more after the initial index ACS event, and non-fatal stroke. Subjects were evaluated at 2, 4, 8, 12, 16, 20, and 24 weeks after randomization and monthly thereafter until study completion. Each evaluation included measurement of serum LDL levels and recordation of any MACEs or less severe adverse events occurring since the previous evaluation. In addition, certain evaluation periods included measurement of one or more of hs-CRP, sPLA2, IL-6, and/or other biomarker levels, vital signs, weight, and/or waist circumference. […] This final evaluation included at least a complete physical examination, a 12-lead ECG reading, measurement of LDL, hs-CRP, sPLA2, and IL-6 levels, and recordation of any MACEs during the study period.

serum sPLA2 = assay: Serum sPLA2 levels in human ACS subjects; format: in vivo; details: ITT population
Experimental: as §1, §2, §3, §4

serum IL-6 = assay: Serum IL-6 levels in human ACS subjects; format: in vivo
Experimental: as §1, §2, §3, §4

LDL and CRP levels = assay: Reaching composite target LDL and hs-CRP levels in human ACS subjects; format: in vivo; details: ITT population
Experimental: as §1, §2, §3, §4

Human ACS Subjects = assay: Major adverse cardiac events (MACEs) in human ACS subjects; format: in vivo
Experimental: as §1, §2, §3, §4

serum LDL = details: for % of subjects with [LDL] < 50 mg/dl / % of subjects with [LDL] < 70 mg/dl / % of subjects with [LDL] < 100 mg/dl / % change in mean [LDL] from baseline / Change in mean [LDL] from baseline: ITT population
[1] = test system: subjects that had recently experienced an ACS event; details: 80 mg atorvastatin; subjects that had recently experienced an ACS event (Schwartz 2001); cited from earlier work
[2] = ITT population, cumulative at 16 weeks

CC(C)c1c(C(=O)Nc2ccccc2)c(-c2ccccc2)c(-c2ccc(F)cc2)n1CC[C@@H](O)C[C@@H](O)CC(=O)O [Placebo (atorvastatin only), atorvastatin]
% change in median [hs-CRP] from baseline (serum hs-CRP; ITT population, Week 2): −20.0%
% change in median [hs-CRP] from baseline (serum hs-CRP; ITT population, Week 4): −63.5%
% change in median [hs-CRP] from baseline (serum hs-CRP; ITT population, Week 8): −71.0%
% change in median [hs-CRP] from baseline (serum hs-CRP; ITT population, Week 16): −71.8%
% change in log mean [hs-CRP] from baseline (serum hs-CRP; ITT population, Week 24): −77.0%
% change in median [hs-CRP] from baseline (serum hs-CRP; diabetes subpopulation, Week 2): −11.0%
% change in median [hs-CRP] from baseline (serum hs-CRP; diabetes subpopulation, Week 4): −51.1%
% change in median [hs-CRP] from baseline (serum hs-CRP; diabetes subpopulation, Week 8): −67.6%
% change in median [hs-CRP] from baseline (serum hs-CRP; diabetes subpopulation, Week 16): −72.4%
% change in median [hs-CRP] from baseline (serum hs-CRP; diabetes subpopulation, Week 24): −76.1%
% change in median [sPLA2] from baseline (serum sPLA2; Week 2): +5.4%
% change in median [sPLA2] from baseline (serum sPLA2; Week 4): −7.0%
% change in median [sPLA2] from baseline (serum sPLA2; Week 8): −15.6%
% change in median [sPLA2] from baseline (serum sPLA2; Week 16): −12.1%
% change in median [IL-6] from baseline (serum IL-6; ITT population, Week 2): −5.2%
% change in median [IL-6] from baseline (serum IL-6; ITT population, Week 4): −33.7%
% change in median [IL-6] from baseline (serum IL-6; ITT population, Week 8): −38.3%
% change in median [IL-6] from baseline (serum IL-6; diabetes subpopulation, Week 2): +3.5%
% change in median [IL-6] from baseline (serum IL-6; diabetes subpopulation, Week 4): −23.9%
% change in median [IL-6] from baseline (serum IL-6; diabetes subpopulation, Week 8): −40.4%
% of subjects with mean [LDL] < 70 mg/dl and [hs-CRP] <1 mg/L (LDL and CRP levels; Baseline): 0.4%
% of subjects with mean [LDL] < 70 mg/dl and [hs-CRP] < 3 mg/L (LDL and CRP levels; Baseline): 1.4%
% of subjects with mean [LDL] < 70 mg/dl and [hs-CRP] <1 mg/L (LDL and CRP levels; Week 2): 5.6%
% of subjects with mean [LDL] < 70 mg/dl and [hs-CRP] < 3 mg/L (LDL and CRP levels; Week 2): 16.4%
% of subjects with mean [LDL] < 70 mg/dl and [hs-CRP] <1 mg/L (LDL and CRP levels; Week 4): 12.8%
% of subjects with mean [LDL] < 70 mg/dl and [hs-CRP] < 3 mg/L (LDL and CRP levels; Week 4): 30.5%
% of subjects with mean [LDL] < 70 mg/dl and [hs-CRP] <1 mg/L (LDL and CRP levels; Week 8): 17.5%
% of subjects with mean [LDL] < 70 mg/dl and [hs-CRP] < 3 mg/L (LDL and CRP levels; Week 8): 36.8%
% of subjects with mean [LDL] < 70 mg/dl and [hs-CRP] <1 mg/L (LDL and CRP levels; Week 16): 15.6%
% of subjects with mean [LDL] < 70 mg/dl and [hs-CRP] < 3 mg/L (LDL and CRP levels; Week 16): 32.9%
% of subjects with mean [LDL] < 70 mg/dl and [hs-CRP] <1 mg/L (LDL and CRP levels; Week 24): 15.9%
% of subjects with mean [LDL] < 70 mg/dl and [hs-CRP] < 3 mg/L (LDL and CRP levels; Week 24): 34.1%
Death (# of events) (Human ACS Subjects; ITT population, 0-30 days): 4
MI (# of events) (Human ACS Subjects; ITT population, 0-30 days): 2
Stroke (# of events) (Human ACS Subjects; ITT population, 0-30 days): 0
Total MACE (# of events) (Human ACS Subjects; ITT population, 0-30 days): 12
UA (# of events) (Human ACS Subjects; ITT population, 0-30 days): 6
Death (# of events), cumulative (Human ACS Subjects; ITT population, 0-60 days): 4
MI (# of events), cumulative (Human ACS Subjects; ITT population, 0-60 days): 3
Stroke (# of events), cumulative (Human ACS Subjects; ITT population, 0-60 days): 0
Total MACE (# of events), cumulative (Human ACS Subjects; ITT population, 0-60 days): 14
UA (# of events), cumulative (Human ACS Subjects; ITT population, 0-60 days): 7
Death (# of events), cumulative (Human ACS Subjects; ITT population, 0-90 days): 5
MI (# of events), cumulative (Human ACS Subjects; ITT population, 0-90 days): 3
Stroke (# of events), cumulative (Human ACS Subjects; ITT population, 0-90 days): 1
Total MACE (# of events), cumulative (Human ACS Subjects; ITT population, 0-90 days): 17
UA (# of events), cumulative (Human ACS Subjects; ITT population, 0-90 days): 8
Death (# of events), cumulative (Human ACS Subjects; ITT population, 0-112 days): 5
MI (# of events), cumulative (Human ACS Subjects; ITT population, 0-112 days): 4
Stroke (# of events), cumulative (Human ACS Subjects; ITT population, 0-112 days): 1
Total MACE (# of events), cumulative (Human ACS Subjects; ITT population, 0-112 days): 19
UA (# of events), cumulative (Human ACS Subjects; ITT population, 0-112 days): 9
Death (# of events) (Human ACS Subjects; ITT population, 30-60 days): 0
MI (# of events) (Human ACS Subjects; ITT population, 30-60 days): 1
Stroke (# of events) (Human ACS Subjects; ITT population, 30-60 days): 0
Total MACE (# of events) (Human ACS Subjects; ITT population, 30-60 days): 2
UA (# of events) (Human ACS Subjects; ITT population, 30-60 days): 1
Death (# of events) (Human ACS Subjects; ITT population, 60-90 days): 1
MI (# of events) (Human ACS Subjects; ITT population, 60-90 days): 0
Stroke (# of events) (Human ACS Subjects; ITT population, 60-90 days): 1
Total MACE (# of events) (Human ACS Subjects; ITT population, 60-90 days): 3
UA (# of events) (Human ACS Subjects; ITT population, 60-90 days): 1
Death (# of events) (Human ACS Subjects; ITT population, 90-112 days): 0
MI (# of events) (Human ACS Subjects; ITT population, 90-112 days): 1
Stroke (# of events) (Human ACS Subjects; ITT population, 90-112 days): 0
Total MACE (# of events) (Human ACS Subjects; ITT population, 90-112 days): 2
UA (# of events) (Human ACS Subjects; ITT population, 90-112 days): 1
Death (% of subjects) (Human ACS Subjects; [2]): 1.6%
Death (number) (Human ACS Subjects; [2]): 5
MI (% of subjects) (Human ACS Subjects; [2]): 1.3%
MI (number) (Human ACS Subjects; [2]): 4
Revascularization ≧ 60 days (number) (Human ACS Subjects; [2]): 0
Stroke (% of subjects) (Human ACS Subjects; [2]): 0.3%
Stroke (number) (Human ACS Subjects; [2]): 1
Total MACEs (% of subjects) (Human ACS Subjects; [2]): 6.1%
Total MACEs (number) (Human ACS Subjects; [2]): 19
UA requiring hospitalization (% of subjects) (Human ACS Subjects; [2]): 2.9%
UA requiring hospitalization (number) (Human ACS Subjects; [2]): 9
% of subjects who experienced a MACE (Human ACS Subjects; days 0 to 30): 3.9%
% of subjects who experienced a MACE (Human ACS Subjects; days 0 to 60): 4.5%
% of subjects who experienced a MACE (Human ACS Subjects; days 0 to 90): 5.5%
% of subjects with [LDL] < 50 mg/dl (serum LDL; Baseline): 1.1%
% of subjects with [LDL] < 70 mg/dl (serum LDL; Baseline): 5.2%
% of subjects with [LDL] < 100 mg/dl (serum LDL; Baseline): 24.1%
% change in mean [LDL] from baseline (serum LDL; Week 2): −41.7%
% of subjects with [LDL] < 50 mg/dl (serum LDL; Week 2): 21.9%
% of subjects with [LDL] < 70 mg/dl (serum LDL; Week 2): 54.6%
% of subjects with [LDL] < 100 mg/dl (serum LDL; Week 2): 89.1%
Change in mean [LDL] from baseline (serum LDL; Week 2): -52.5 mg/dL
% change in mean [LDL] from baseline (serum LDL; Week 4): −42.3%
% of subjects with [LDL] < 50 mg/dl (serum LDL; Week 4): 25.0%
% of subjects with [LDL] < 70 mg/dl (serum LDL; Week 4): 54.8%
% of subjects with [LDL] < 100 mg/dl (serum LDL; Week 4): 91.2%
Change in mean [LDL] from baseline (serum LDL; Week 4): -55.5 mg/dL
% change in mean [LDL] from baseline (serum LDL; Week 8): −43.8%
% of subjects with [LDL] < 50 mg/dl (serum LDL; Week 8): 22.7%
% of subjects with [LDL] < 70 mg/dl (serum LDL; Week 8): 59.9%
% of subjects with [LDL] < 100 mg/dl (serum LDL; Week 8): 91.4%
Change in mean [LDL] from baseline (serum LDL; Week 8): -56.6 mg/dL
% change in mean [LDL] from baseline (serum LDL; Week 16): −36.5%
% of subjects with [LDL] < 50 mg/dl (serum LDL; Week 16): 16.8%
% of subjects with [LDL] < 70 mg/dl (serum LDL; Week 16): 48.3%
% of subjects with [LDL] < 100 mg/dl (serum LDL; Week 16): 82.4%
Change in mean [LDL] from baseline (serum LDL; Week 16): -48.1 mg/dL
% change in mean [LDL] from baseline (serum LDL; Week 24): −38.2%
% of subjects with [LDL] < 50 mg/dl (serum LDL; Week 24): 14.1%
% of subjects with [LDL] < 70 mg/dl (serum LDL; Week 24): 50.0%
% of subjects with [LDL] < 100 mg/dl (serum LDL; Week 24): 86.5%
Change in mean [LDL] from baseline (serum LDL; Week 24): -50.0 mg/dL
percentage of subjects reaching target LDL levels of 50 mg/dl or less (serum LDL; final study visit): 16.0%
percentage of subjects reaching target LDL levels of 70 mg/dl or less (serum LDL; final study visit): 42.8%
absolute reduction in death, non-fatal MI, cardiac arrest with resuscitation, or worsening symptomatic myocardial ischemia [1]: 2.6%
relative reduction in death, non-fatal MI, cardiac arrest with resuscitation, or worsening symptomatic myocardial ischemia [1]: 16%
